Source: patent US9708286B2, “Ingenol-3-acylates III and ingenol-3-carbamates” (LEO Laboratories Limited, priority 2010, dated 2017)
Like-named read-outs stand apart in the source and are kept apart here.

What was measured:
Type in all cases: cell-based
[1] = tested on: PMN's (polymorphonuclear leukocytes); assay: Neutrophil oxidative burst; conditions: normalized to 5×10^−7 M PEP0005
Protocol: PMN's (polymorphonuclear leukocytes) were isolated and purified from fresh buffy coats by sequential sedimentation, density centrifugation and lysis of contaminating erythrocytes. Buffy coats were incubated with 2% methocel for 30-45 min to differentially sediment red blood cells. The leukocyte-rich supernatant was transferred to lymphoprep tubes to remove mononuclear cells by density centrifugation (400×g, 30 min). The pellet was resuspended and any remaining erythrocytes lysed using 0.2% NaCl for 30 sec before restoring isotonicity by the addition of 1.2% NaCl. This step was repeated until the cell pellet appears relatively free of red blood cells. Cells were resuspended in DPBS (Dulbecco's Phosphate Buffered Saline) (w.o. Ca^2+, Mg^2+) and the concentration adjusted to 1.4×10^6 cells/ml in HBSS (Hanks Balanced Salt solution) (w Ca^2+, Mg^2±) containing 0.1% BSA (Bovine Serum Albumin) and 5 mM glucose just prior to assay initiation. Titrated reference and test compounds were pre-mixed with HE (Hydroethidine) (10 μM final assay concentration) before addition to 96-well plates containing 2.5×10^5 cells. Following 40 min incubation at RT, changes in the respiratory burst was estimated by measuring fluorescence at 579 nm (excitation: 485 nm) using an Envision plate reader.
Test compound titration curves were fitted to a four-parameter sigmoidal curve after normalizing the effect of the test compound to the effect of the positive control (5×10^−7 M PEP0005). Rel EC50 denotes the concentration of test compound producing an effect that is midway between the fitted top and bottom. Abs EC50 is the concentration of test compound that provokes a response corresponding to 50% of the maximal effect associated with the positive control (5×10^−7 M PEP0005).

HeLa cells = assay: Necrosis assay; conditions: Homo sapiens, HeLa, 0.5 h, read-out: HeLa necrosis EC50 range
Protocol: HeLa cells (ATCC CCL-002) were grown in minimal essential medium (Invitrogen catalog no. 42360) containing 10% fetal bovine serum, 100 IU/ml penicillin and 100 μg/ml streptomycin. 4,000-6,000 cells were seeded into 96-well black ViewPlates-plates, clear bottom, (Perkin Elmer) in 100 μl medium and incubated overnight. Compounds were dissolved and pre-diluted in DMSO in 96-well polypropylene plates (Greiner) in a concentration range of 15 μM to 600 μM. At the time of the experiment cell plates were placed on heating blocks at 37° C., medium was removed and 40 μl fresh, pre-warmed medium was added per well. Cells were incubated for 15 min before addition of compounds. In parallel, 3 μl of compounds were diluted with 197 μl growth medium on a Tecan freedom-EVO pipetting station using 250 μl/s pipetting speed, in order to ensure effective mixing of the highly concentrated compound solutions with the aqueous phase. These pre-dilution plates were then equilibrated on heating blocks at 37° C. for 10 min. 80 μl pre-diluted compound were transferred manually to the corresponding wells containing HeLa cells yielding compound concentrations of 10 μM to 400 μM. Control conditions were 1% DMSO in growth medium (100% viability) and 400 μM ingenol mebutate in growth medium (0% viability). Plates were incubated on the heating blocks at 37° C. for 30 min. At the end of the incubation 10 μl PrestoBlue reagent (Invitrogen) were added to each well, plates were sealed with black seal, followed by incubation at 37° C. for 10 min with gentle shaking (150 rpm). Subsequently, plates were placed at room temperature for 20-30 min. Plates were read immediately after on an Envision Fluorescence reader (Perkin Elmer) with excitation at 535 nm and emission at 630 nm. Test compound titration curves were fitted to a four-parameter sigmoidal curve after normalizing the effect of the test compound to the effect of the positive control (4 10^−4 M PEP0005/ingenol mebutate). AbsEC50 denotes the concentration of test compound producing 50% effect.

[2] = tested on: Primary human epidermal keratinocytes, HeKa; assay: HeKa cytokine release (IL-8); conditions: read-out: HeKa cytokine release (IL-8) Rel EC50 range
Protocol: Primary human epidermal keratinocytes, HeKa, were seeded (10.000 cells/well) in 96-well plates the day before the assay. Test compounds were diluted in DMSO (dimethyl sulfoxide) and further diluted in assay medium and pipetted into wells of 96 well-plates containing HeKa cells. The plates were incubated for 6 h at 37° C. in humidified air with 5% CO2. Plates were centrifuged briefly to spin down cells at 4° C., the supernatant was removed and analysed by Meso Scale Discovery (MSD) 4-spot cytokine assay (Pro-inflammatory II Ultra Sensitive kit, MSD, MD, USA). The MSD assay employs a sandwich immunoassay format where capture antibodies are coated in a patterned array on the bottom of the wells of a 4-Spot-Multi-MSD plate. Standard samples were incubated in the MULTI-SPOT plates as well, and the cytokine (IL-8) binds to its corresponding capture antibody spot. The cytokine level was quantitated on a SECTOR™ Imager using a cytokine-specific Detection Antibody labelled with MSD SULFO-TAG™ reagent.
Test compound titration curves were fitted to a four-parameter sigmoidal curve after normalizing the effect of the test compound to the effect of the positive control (1.5×10^−7 M PEP0005). Rel EC50 denotes the concentration of test compound producing an effect that is midway between the fitted top and bottom.

[3] = Leukocyte, 40 min, read-out: Neutrophil oxidative burst Rel EC50 range, PMN from buffy coats, 40 min at RT, hydroethidine fluorescence

Row | SMILES | EC50 [1, 3] [nM] | EC50 (HeLa cells) [nM] | EC50 ([2]; Homo sapiens, HEKa, 6 h) [nM] | EC50 ([1]; read-out: Neutrophil oxidative burst Rel EC50 range, PMN from buffy coats, 40 min at RT, hydroethidine fluorescence) [nM] | EC50 ([2]; HeKa cells, 6 h at 37° C., IL-8 by MSD assay, normalized to 1.5×10^−7 M PEP0005) [nM]
1 | CC1=C[C@]23C(=O)[C@@H](C=C(CO)[C@@H](O)[C@]2(O)[C@H]1OC(=O)c1cccn1C1CC1)[C@H]1[C@@H](C[C@H]3C)C1(C)C [Compound 585, Ingenol 3-(1-cyclopropylpyrrole-2-carboxylate)] | < 20 | < 150000 | < 20 | – | –
2 | CC1=C[C@]23C(=O)[C@@H](C=C(CO)[C@@H](O)[C@]2(O)[C@H]1OC(=O)c1c(N2CCCCC2)cnn1C)[C@H]1[C@@H](C[C@H]3C)C1(C)C [Compound 538, Ingenol 3-(2-methyl-4-(1-piperidyl)pyrazole-3-carboxylate)] | < 20 | 150000 to 350000 | 20 to 100 | – | –
3 | CC1=C[C@]23C(=O)[C@@H](C=C(CO)[C@@H](O)[C@]2(O)[C@H]1OC(=O)c1c(-c2ccc(S(C)(=O)=O)cc2)cnn1C)[C@H]1[C@@H](C[C@H]3C)C1(C)C [Compound 556, Ingenol 3-(2-methyl-4-(4-methylsulfonylphenyl)pyrazole-3-carboxylate)] | 20 to 100 | 150000 to 350000 | 20 to 100 | – | –
4 | CC1=C[C@]23C(=O)[C@@H](C=C(CO)[C@@H](O)[C@]2(O)[C@H]1OC(=O)c1ncsc1C)[C@H]1[C@@H](C[C@H]3C)C1(C)C [Compound 525, Ingenol 3-(5-methylthiazole-4-carboxylate)] | 20 to 100 | > 350000 | > 100 | – | –
5 | CC1=C[C@]23C(=O)[C@@H](C=C(CO)[C@@H](O)[C@]2(O)[C@H]1OC(=O)N(C)CC1CCOCC1)[C@H]1[C@@H](C[C@H]3C)C1(C)C [Compound 746, Ingenol 3-(N-methyl-N-(tetrahydropyran-4-ylmethyl)-carbamate)] | 20 to 100 | > 350000 | > 100 | – | –
6 | CC1=C[C@]23C(=O)[C@@H](C=C(CO)[C@@H](O)[C@]2(O)[C@H]1OC(=O)c1c(C)oc(C)c1C)[C@H]1[C@@H](C[C@H]3C)C1(C)C [Compound 536, Ingenol 3-(2,4,5-trimethylfuran-3-carboxylate)] | < 20 | 150000 to 350000 | < 20 | – | –
7 | CCN(C(=O)O[C@H]1C(C)=C[C@]23C(=O)C(C=C(CO)[C@@H](O)[C@]12O)[C@H]1[C@@H](C[C@H]3C)C1(C)C)c1ccccc1 [Compound 734, Ingenol 3-(N-ethyl-N-phenyl-carbamate)] | 20 to 100 | 150000 to 350000 | < 20 | – | –
8 | CC1=C[C@]23C(=O)[C@@H](C=C(CO)[C@@H](O)[C@]2(O)[C@H]1OC(=O)c1c(Cl)cnn1C)[C@H]1[C@@H](C[C@H]3C)C1(C)C [Compound 522, Ingenol 3-(4-chloro-2-methyl-pyrazole-3-carboxylate)] | < 20 | 150000 to 350000 | < 20 | – | –
9 | CC1=C[C@]23C(=O)[C@@H](C=C(CO)[C@@H](O)[C@]2(O)[C@H]1OC(=O)N1CCCC1C(F)(F)F)[C@H]1[C@@H](C[C@H]3C)C1(C)C (single isomer, unassigned; isomer b) [Compound 741, Ingenol 3-(2-trifluoromethyl-pyrrolidine-1-carboxylate) (ISOMER B)] | – | > 350000 | – | 20 to 100 | 20 to 100
10 | CC1=C[C@]23C(=O)[C@@H](C=C(CO)[C@@H](O)[C@]2(O)[C@H]1OC(=O)N1CCCc2ccccc21)[C@H]1[C@@H](C[C@H]3C)C1(C)C [Compound 726, Ingenol 3-(3,4-dihydro-2H-quinoline-1-carboxylate)] | 20 to 100 | < 150000 | < 20 | – | –
11 | CCc1noc(C)c1C(=O)O[C@H]1C(C)=C[C@]23C(=O)[C@@H](C=C(CO)[C@@H](O)[C@]12O)[C@H]1[C@@H](C[C@H]3C)C1(C)C [Compound 507, Ingenol 3-(3-ethyl-5-methyl-isoxazole-4-carboxylate)] | < 20 | 150000 to 350000 | < 20 | – | –
12 | CC1=C[C@]23C(=O)[C@@H](C=C(CO)[C@@H](O)[C@]2(O)[C@H]1OC(=O)C1N(C(=O)OC(C)(C)C)CCC1(C)C)[C@H]1[C@@H](C[C@H]3C)C1(C)C (stereo partly drawn) [Compound 544, Ingenol 3-(1-tert-butyloxycarbonyl-3,3-dimethylpyrrolidine-2-carboxylate)] | > 100 | 150000 to 350000 | > 100 | – | –
13 | CC1=C[C@]23C(=O)[C@@H](C=C(CO)[C@@H](O)[C@]2(O)[C@H]1OC(=O)c1c(C)cc(C)n1C)[C@H]1[C@@H](C[C@H]3C)C1(C)C [Compound 542, Ingenol 3-(1,3,5-trimethylpyrrole-2-carboxylate)] | < 20 | < 150000 | < 20 | – | –
14 | CC1=C[C@]23C(=O)[C@@H](C=C(CO)[C@@H](O)[C@]2(O)[C@H]1OC(=O)c1c2c(nn1C)CCCC2)[C@H]1[C@@H](C[C@H]3C)C1(C)C [Compound 563, Ingenol 3-(2-methyl-4,5,6,7-tetrahydroindazole-3-carboxylate)] | < 20 | < 150000 | < 20 | – | –
15 | CC1=C[C@]23C(=O)[C@@H](C=C(CO)[C@@H](O)[C@]2(O)[C@H]1OC(=O)N(C)C1CCCC1)[C@H]1[C@@H](C[C@H]3C)C1(C)C [Compound 722, Ingenol 3-(N-cyclopentyl-N-methyl-carbamate)] | < 20 | > 350000 | 20 to 100 | – | –
16 | CC1=C[C@]23C(=O)[C@@H](C=C(CO)[C@@H](O)[C@]2(O)[C@H]1OC(=O)c1cc(C(C)(C)C)nn1C)[C@H]1[C@@H](C[C@H]3C)C1(C)C [Compound 533, Ingenol 3-(5-tert-butyl-2-methyl-pyrazole-3-carboxylate)] | < 20 | < 150000 | < 20 | – | –
17 | CC1=C[C@]23C(=O)[C@@H](C=C(CO)[C@@H](O)[C@]2(O)[C@H]1OC(=O)c1c(C)nn(-c2ccccc2)c1C)[C@H]1[C@@H](C[C@H]3C)C1(C)C [Compound 558, Ingenol 3-(3,5-dimethyl-1-phenyl-pyrazole-4-carboxylate)] | < 20 | < 150000 | < 20 | – | –
18 | COc1cccc(N(C)C(=O)O[C@H]2C(C)=C[C@]34C(=O)[C@@H](C=C(CO)[C@@H](O)[C@]23O)[C@H]2[C@@H](C[C@H]4C)C2(C)C)c1 [Compound 748, Ingenol 3-(N-methyl-N-(3-methoxy-phenyl)-carbamate)] | < 20 | 150000 to 350000 | 20 to 100 | – | –
